In US7604947B2, “Detection and modulation of cancer stem cells” (Cornell Research Foundation, Inc., priority 2004, dated 2009):
“Also recorded” adds a separate entry of the source.

Tests used:
hRex1 = experiment: RT-PCR of hRex1 expression after retinoic acid treatment; type: cell-based, human; details: MDA-MB-468 cells
human REX-1 protein [1] = experiment: Western blot of human REX-1 protein after retinoic acid treatment, MDA-MB-468 cells; type: cell-based; details: RA 1 μM for 48 hours
From the text: (§1) The following human carcinoma and leukemia cell lines were maintained as directed by the ATCC: breast cancer cells: MCF-7, MDA-MB-231, MDA-MB-453, MDA-MB-468, SK-BR3 and HS578T; prostate cancer cells: LnCAP; skin cancer cells: SCC-12, SCC-13; kidney cancer cells: SK-39; bladder cancer cells: HTB1, HT1376, HTB9; oral cavity (head and neck) cancer: SCC-4, SCC-9, SCC-25, SCC-15; leukemia cells: HL-60, NB4 and NTERA2 teratocarcinoma cells. Normal human mammary (HMEC); renal proximal tubule epithelial cells (RPTE); prostate epithelial cells (PrEC), keratinocytes (NHEK) and lung (NHBE, SAEC) epithelial cells were grown as directed by the supplier (Cambrex, Walkersville, Md.). Normal human keratinocytes were also purchased from Cascade Biologics (Portland, Oreg.) and cultured as directed. Non-tumorous bladder cancer samples were provided by Dr. Stephen Boorjian (Weill Medical College, Cornell University, NY, N.Y.) and are as described in Boorjian, S, Tickoo, S K, Mongan, N P et al. Reduced Lecithin:Retinol Acyltransferase (LRAT) Expression Correlates with Increased Pathologic Tumor Stage in Bladder Cancer. Clinical Cancer Research 2004; 10:In press. Normal and All-trans-retinoic acid (RA) (Sigma, St. Louis, Mo.) was dissolved in ethanol and used at a final concentration of 20 nM or 1 μM as indicated in the descriptions of the figures. […]

human REX-1 protein [2] = experiment: Western blot of human REX-1 protein after retinoic acid treatment, HEKa cells; type: cell-based; details: RA 1 μM for 48 hours
From the text: as §1

[3] = system: polyclonal rabbit anti-human REX-1 antibody; experiment: Immunohistochemistry peptide competition of anti-REX-1 antibody staining in normal renal parenchyma; type: binding; details: 1 μg/mL free peptide, normal renal parenchyma sections
Protocol: Paraffin-embedded sections. Five micron tissue sections were cut from the patient blocks, and the sections were deparaffinized in Histoclear™(National Diagnostics, Atlanta, Ga.) followed by rehydration in a graded series of ethanol. Antigen retrieval was performed by heat with the Antigen Unmasking Solution (Vector Laboratories, Burlingame, Calif.) in a pressure cooker for 8 minutes. A 3% solution of H2O2 was used to quench the endogenous peroxidase activity (15 minute incubation). […] This was followed by incubation with the affinity-purified, polyclonal rabbit antihuman REX-1 primary antibody diluted 1:5 in 1.5% goat serum for 45-60 min. at room temperature, and then with 100 μL of horseradish peroxidase (HRP) conjugated goat anti-rabbit secondary antibody (SuperPicture, Zymed, San Francisco, Calif.) for 30 minutes at room temperature. Color was developed with the 3,3′-diaminobenzidine chromogen substrate, followed by counterstaining with hematoxylin (Vector). The negative control normal and tumor sections were treated identically to all other sections, with the exception that 1.5% normal goat serum was used in place of the primary antibody. […] All samples were analyzed using this identical protocol with the same reagents. The staining procedures were repeated at least three times with similar results.

CC1=C(/C=C/C(C)=C/C=C/C(C)=C/C(=O)O)C(C)(C)CCC1 [RA, All-trans-retinoic acid]
expression of hRex1 following RA treatment (hRex1): not reduced | expression of hRex1 following RA treatment (hRex1; listed as retinoic acid): does not decrease | level of human REX-1 protein following RA treatment (human REX-1 protein [1]): did not alter; also recorded: unaltered | level of human REX-1 protein following RA treatment (human REX-1 protein [2]): did not alter; also recorded: unaltered

SNNLKAHILTHANTNKNEQEGK (listed as Homo sapiens) [free human REX-1 peptide]
REX-1 antibody staining in presence of free peptide [3]: staining was eliminated
